Columns and labels:
MJY-alpha monolayers = assay type: cell-based
B-95-8 B-lymphoma = test: Tumor cell survival (trypan blue), continuous exposure; assay type: cell-based, Marmorset
B-16 melanoma cells = test: Tumor cell survival after pulse treatment; assay type: cell-based, Mouse; details: for Percent Tumor Cell Survival: viability 24 hr later
Protocol: (§1) MJY-alpha mammary tumor cell layers were initiated at 2×10^5 cells/2 cm^2 well (Nuncion Multidish 4, Vangard International, Neptune, NJ) using cells spontaneously released into the medium from confluent 6-8 day old cell layers. B-16 melanoma cells obtained from 4-day-old cell confluent cultures by trypsinization with STV were plated at 2.2×10^5 cells/cm^2 well. These seeding densities yielded lightly confluent layers (2.3-2.6×10^5 cell/cm^2). following treatment the layers were rinsed twice and reincubated with growth media: media were changed daily until the cultures were terminated.
(§2) Survival of tumor cell layers or suspensions was ascertained using 0.5% trypan blue in 0.1M phosphate-buffered saline, pH 7.25. Cell layers were released from the Multidish-4 wells with 0.5 ml STV, diluted 2 to 10 fold with the vital strain; tumor cells in suspension cultures were directly mixed 1:1 with the trypan blue dye. Tumor cells were enumerated using a haemocytometer; all 10 fields were counted for every sample. Percent viable cells was determined by direct comparison of the numbers of cells excluding trypan blue in treated cultures to those in untreated or diluent-treated parallel cultures. There were no significant differences in the viability of cells treated with diluent when compared to untreated cells.
(§3) To delineate the minimum concentration and duration of the tripeptide compound exposure to induce cytolysis, MJY-alpha and B-16 melanoma cell layers and L-1210 leukemia cell suspensions were exposed to 0.5 to 50 ug of the tripeptide compound per ml of solvent for 0.25 to 4 hours. The tripeptide compound was then removed and the cells washed and reincubated in media growth. Tumor cell viability was determined 24 hrs after pulse tripeptide compound exposure. Cell survival of all three tumor cell lines was reduced by an exposure period of as short as 15 min (Table 4). The degree of cytolysis increased with extension of the treatment periods from 15 min to 4 hrs, although the decreases in cell survival were not proportional to the duration of the exposure. […] Comparison of the data in Tables 2 and 4 reveal that cells exposed to the tripeptide compound for one hour were irreversibly damaged when assayed a day later despite their apparent viability immediately after treatment.
(§4) The reversibility of the cancericidal activity of the tripeptide compounds on L-1210 leukemia, MJY-alpha mammary tumor and B-16 melanoma cells was also monitored in the nonhostile tissue culture environment. Cell suspensions of these tumor models were treated with tripeptide for 15 to 240 min, washed and either inoculated into mice or maintained as suspension (L-1210) or monolayer cultures (MJY-alpha and B-16). Reductions in tumor cells survival were negligible (0-6%) in all three tumor systems at initiation of in vitro cultures following treatment with 50 ug tripeptide/ml for as long as 4 hrs. However, significant decreases in cellular viabilities of L-1210 leukemia (FIG. 9), MJY-alpha mammary tumor (FIG. 10) and B-16 melanoma (FIG. 11) tumor cells were observed 24 hr following tripeptide exposure and for the next 6 days.

[1] = test system: MJY-alpha mammary tumor cells; test: Tumor cell survival after pulse treatment; assay type: cell-based, Mouse; details: for Percent Tumor Cell Survival: viability 24 hr later
Protocol: as §1, §2, §3, §4

spontaneous leukemia = test: Treatment of spontaneous leukemia in AKR mice; assay type: in vivo
Source text: Leukemia in AKR mice, which is the result of the oncogenic activity of the endogenous Gross leukemia virus, has been effectively used as a model for human leukemias in the studies of tumor biology, chemotherapy, and chemoimmunotherapy. There is considerable evidence that leukemia in the AKR mice mimics human leukemias in many respects, and it is probable that AKR leukemia is analogous to human acute T-cell lymphocytic leukemia. Leukemic cells first appear in the thymus of mice at 6 to 12 months of age. Controlling this disease is formidable, since the cure or long range control of spontaneous leukemia in AKR mice require the therapeutic eradication of virtually all of the oncogenic cells. The time lapse between the first appearance of viable lymphoma cells in the thymus and the clinical diagnosis is about 30 days.
The effectiveness of the tripeptide compound in the treatment of spontaneous leukemia in AKR mice was tested. The clinical diagnosis of spontaneous leukemia in AKR mice was made with 95% accuracy by splenic and lymph node palpation, followed by leukocyte count. There is good evidence that at the time of clinical diagnosis there are 0.6-1.8×10^9 widely disseminated lymphoma cells in AKR mice. Without cytoreductive therapy, AKR mice die after diagnosis of spontaneous leukemia at the rate of 50% by 14 days, 90% by 33 days, and 96% by 56 days. […] Reduction of thymus and spleen weights to normal is indicative of eradication of the primary tumor. Leukemic AKR mice receiving either treatment sustained a mean survival time of 200% and 100%, respectively. It is also important and significant that the tripeptide compound treatment provides good sustainment since 30% of the treated animals in either group were alive after the onset on the therapy (FIG. 6).

[2] = 50 ug/ml for as long as 4 hrs (all three tumor systems)

For CCOC(=O)[C@H](CCSC)NC(=O)[C@H](Cc1cccc(N(CCCl)CCCl)c1)NC(=O)[C@@H](N)Cc1ccc(F)cc1.Cl [PTT.119, 3-(p-fluorophenyl)-L-alanyl-3-[m-bis(2-chloroethyl)aminophenyl]-L-alanyl-L-methionine ethyl ester hydrochloride], which “reduction of viability of tumor cell layers compared to solvent” value (MJY-alpha monolayers) is on record?
Its value is 15-20%.

What about the “% tumor cell survival” value (B-95-8 B-lymphoma; 10 ug/ml, 1 hr) of the same compound?
Its value is 100%.

And the “% tumor cell survival” value (B-95-8 B-lymphoma; 10 ug/ml, 4 hr)?
Its value is 100%.

What about the “% tumor cell survival” value (B-95-8 B-lymphoma; 10 ug/ml, 24 hr) of the same compound?
Its value is 40%.

And the “% tumor cell survival” value (B-95-8 B-lymphoma; 25 ug/ml, 1 hr)?
The value was 100%.

And the “% tumor cell survival” value (B-95-8 B-lymphoma; 25 ug/ml, 4 hr)?
Its value is 86%.

And the “% tumor cell survival” value (B-95-8 B-lymphoma; 25 ug/ml, 8 hr)?
Its value is 49%.

And the “% tumor cell survival” value (B-95-8 B-lymphoma; 25 ug/ml, 24 hr)?
Its value is 20%.

And the “% tumor cell survival” value (B-95-8 B-lymphoma; 50 ug/ml, 1 hr)?
Its value is 77%.

And the “% tumor cell survival” value (B-95-8 B-lymphoma; 50 ug/ml, 4 hr)?
Its value is 42%.

And the “% tumor cell survival” value (B-95-8 B-lymphoma; 50 ug/ml, 8 hr)?
Its value is 26%.

And the “% tumor cell survival” value (B-95-8 B-lymphoma; 50 ug/ml, 24 hr)?
The value was 6%.

What about the “Percent Tumor Cell Survival” value (B-16 melanoma cells; 5 ug/ml, pulse 1 hr) of the same compound?
Its value is 88%.

And the “Percent Tumor Cell Survival” value (B-16 melanoma cells; 5 ug/ml, pulse 2 hr)?
Its value is 66%.

And the “Percent Tumor Cell Survival” value (B-16 melanoma cells; 5 ug/ml, pulse 4 hr)?
Its value is 79%.

What about the “Percent Tumor Cell Survival” value (B-16 melanoma cells; 5 ug/ml, pulse .5 hr) of the same compound?
The value was 93%.

And the “Percent Tumor Cell Survival” value (B-16 melanoma cells; 10 ug/ml, pulse 1 hr)?
The value was 68%.

And the “Percent Tumor Cell Survival” value (B-16 melanoma cells; 10 ug/ml, pulse 2 hr)?
Its value is 73%.

And the “Percent Tumor Cell Survival” value (B-16 melanoma cells; 10 ug/ml, pulse 4 hr)?
The value was 63%.

And the “Percent Tumor Cell Survival” value (B-16 melanoma cells; 10 ug/ml, pulse .5 hr)?
Its value is 75%.

And the “Percent Tumor Cell Survival” value (B-16 melanoma cells; 25 ug/ml, pulse 1 hr)?
The value was 60%.

And the “Percent Tumor Cell Survival” value (B-16 melanoma cells; 25 ug/ml, pulse 2 hr)?
Its value is 56%.

What about the “Percent Tumor Cell Survival” value (B-16 melanoma cells; 25 ug/ml, pulse 4 hr) of the same compound?
Its value is 52%.

And the “Percent Tumor Cell Survival” value (B-16 melanoma cells; 25 ug/ml, pulse .25 hr)?
Its value is 82%.

And the “Percent Tumor Cell Survival” value (B-16 melanoma cells; 25 ug/ml, pulse .5 hr)?
Its value is 67%.

And the “reductions in tumor cell survival at initiation of in vitro cultures” value (B-16 melanoma cells; [2])?
The value was 0-6%.

What about the “Percent Tumor Cell Survival” value (B-16 melanoma cells; 50 ug/ml, pulse 1 hr) of the same compound?
Its value is 48%.

What about the “Percent Tumor Cell Survival” value (B-16 melanoma cells; 50 ug/ml, pulse .25 hr) of the same compound?
The value was 65%.

What about the “Percent Tumor Cell Survival” value (B-16 melanoma cells; 50 ug/ml, pulse .5 hr) of the same compound?
The value was 62%.

What about the “Percent Tumor Cell Survival” value ([1]; 5 ug/ml, pulse 1 hr) of the same compound?
The value was 89%.

And the “Percent Tumor Cell Survival” value ([1]; 5 ug/ml, pulse 2 hr)?
The value was 77%.

And the “Percent Tumor Cell Survival” value ([1]; 5 ug/ml, pulse 4 hr)?
The value was 76%.

And the “Percent Tumor Cell Survival” value ([1]; 5 ug/ml, pulse .5 hr)?
Its value is 94%.

And the “Percent Tumor Cell Survival” value ([1]; 10 ug/ml, pulse 1 hr)?
The value was 70%.

What about the “Percent Tumor Cell Survival” value ([1]; 10 ug/ml, pulse 2 hr) of the same compound?
The value was 64%.

What about the “Percent Tumor Cell Survival” value ([1]; 10 ug/ml, pulse 4 hr) of the same compound?
Its value is 48%.

And the “Percent Tumor Cell Survival” value ([1]; 10 ug/ml, pulse .25 hr)?
The value was 68%.

What about the “Percent Tumor Cell Survival” value ([1]; 10 ug/ml, pulse .5 hr) of the same compound?
The value was 67%.

What about the “Percent Tumor Cell Survival” value ([1]; 25 ug/ml, pulse 1 hr) of the same compound?
The value was 51%.

And the “Percent Tumor Cell Survival” value ([1]; 25 ug/ml, pulse 2 hr)?
The value was 46%.

What about the “Percent Tumor Cell Survival” value ([1]; 25 ug/ml, pulse 4 hr) of the same compound?
The value was 44%.

What about the “Percent Tumor Cell Survival” value ([1]; 25 ug/ml, pulse .25 hr) of the same compound?
Its value is 61%.

What about the “Percent Tumor Cell Survival” value ([1]; 25 ug/ml, pulse .5 hr) of the same compound?
Its value is 37%.

What about the “reductions in tumor cell survival at initiation of in vitro cultures” value [1, 2] of the same compound?
Its value is 0-6%.

And the “Percent Tumor Cell Survival” value ([1]; 50 ug/ml, pulse 1 hr)?
Its value is 41%.

What about the “Percent Tumor Cell Survival” value ([1]; 50 ug/ml, pulse .25 hr) of the same compound?
Its value is 45%.

What about the “Percent Tumor Cell Survival” value ([1]; 50 ug/ml, pulse .5 hr) of the same compound?
The value was 32%.

And the mean survival time (spontaneous leukemia; 5 mg per kg on days 1, 4, 7, 21, and 42)?
Its mean survival time is 100%.

What about the mean survival time (spontaneous leukemia; 10 mg per kg on days 1 and 14) of the same compound?
Its mean survival time is 200%.

What about the “leukemic thymus and spleen weights” value (spontaneous leukemia; after chemotherapy, either regimen) of the same compound?
The value was “Significant reductions”.

What about the “treated animals alive after the onset of therapy” value (spontaneous leukemia; either treatment group) of the same compound?
The value was 30%.
